Measurements from BindingDB's records for doi:10.1007/pl00005131 (UniversitÄT WÜRzburg, 1998).

Experiments:
Adenosine receptor A3 = target: T1, Adenosine receptor A3 (Homo sapiens, UniProt P0DMS8)
T1 sequence (P0DMS8 whole entry): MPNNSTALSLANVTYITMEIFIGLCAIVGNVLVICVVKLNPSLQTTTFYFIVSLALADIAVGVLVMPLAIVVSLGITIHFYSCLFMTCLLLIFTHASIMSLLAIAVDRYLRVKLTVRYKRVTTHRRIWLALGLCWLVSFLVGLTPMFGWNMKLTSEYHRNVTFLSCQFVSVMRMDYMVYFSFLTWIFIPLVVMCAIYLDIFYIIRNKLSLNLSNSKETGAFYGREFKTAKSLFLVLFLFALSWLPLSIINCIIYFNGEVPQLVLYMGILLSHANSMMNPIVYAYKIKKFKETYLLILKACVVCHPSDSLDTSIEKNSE

Adenosine receptor A2a = Adenosine receptor A2a (Homo sapiens, UniProt P29274)
Adenosine receptor A2a, sequence (P29274 whole entry): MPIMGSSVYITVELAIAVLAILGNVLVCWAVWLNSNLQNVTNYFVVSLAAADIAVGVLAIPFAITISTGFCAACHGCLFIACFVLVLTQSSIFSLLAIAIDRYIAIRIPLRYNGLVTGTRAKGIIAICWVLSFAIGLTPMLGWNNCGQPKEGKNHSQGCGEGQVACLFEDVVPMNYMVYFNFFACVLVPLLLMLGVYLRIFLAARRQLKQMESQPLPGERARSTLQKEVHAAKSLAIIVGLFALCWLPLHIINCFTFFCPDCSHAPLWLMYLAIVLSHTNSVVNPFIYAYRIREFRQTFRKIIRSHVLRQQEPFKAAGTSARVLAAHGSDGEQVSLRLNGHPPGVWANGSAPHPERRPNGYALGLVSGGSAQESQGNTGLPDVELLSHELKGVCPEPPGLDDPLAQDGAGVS

| Ki (Adenosine receptor A3) | Ki (Adenosine receptor A2a) | SMILES |
| --- | --- | --- |
| 43 nM | 794 nM | OC[C@H]1O[C@@H](n2cnc3c(NC4CCCC4)ncnc32)[C@H](O)[C@@H]1O |
|  | 471 nM | CNC(=O)[C@H]1O[C@@H](n2cnc3c(NCc4ccc(N)c(I)c4)ncnc32)[C@H](O)[C@@H]1O |
| 21.5 nM |  | CNC(=O)[C@H]1O[C@@H](n2cnc3c(NCc4ccc(N)cc4)ncnc32)[C@H](O)[C@@H]1O [AB-MECA] |

| SMILES | Ki (Adenosine receptor A3) | Ki (Adenosine receptor A2a) |
| --- | --- | --- |
| Nc1nc2ccc(Cl)cc2c2nc(-c3ccco3)nn12 | 50.8 nM |  |
